Experimental data reported in US20240287046A1, “COMPOUNDS AND RADIOLIGANDS FOR TARGETING NEUROTENSIN RECEPTOR AND USES THEREOF” (Full-Life Technologies HK Limited, priority 2022, published 2024).
Each block holds one compound with its values, some of them ahead of it.

System: ASPC-1 tumor-bearing mice
Experiment: Biodistribution of radionuclide labeled complexes in ASPC-1 tumor-bearing mice
Type: in vivo, BALB/c nude mice
Conditions: for ratio of tumor AUC verse normal organ AUC: compared to ^177Lu—C2
Method: The BALB/c nude mice (Charles River, Beijing) were utilized to establish the xenografted model for biodistribution study. All animal care and experimental procedure were performed by following the animal protocols approved by the ethics committee of China Institute of Radiation Protection.
Briefly, each mouse was inoculated with approximately 4×10^6 ASPC-1 cells (human pancreatic cancer cell line) or HT-29 cells (human colorectal adenocarcinoma cell line) expressing human NTSR-1 by subcutaneous injection at rear flank. After inoculation, the xenografted tumors were allowed to grow for ˜2-4 weeks till the tumor weight reached to about 0.05 to 0.50 g (0.20 g in average).
Biodistribution studies were performed by administrating the radionuclide labeled test compound at a dose of ˜30-50 μCi (100 μL in 0.9% NaCl, ˜1.11-1.85 MBq, with specific activity 30-250 μCi/nmol) to each animal through tail vein injection.
At different time points after the administration, the mice treated with each compound were euthanized. The tissues and organs of the animals in each group were collected, excised, weighed, and analyzed in a PerkinElmer 2480 WIZARD2γ counter, and the percent injected dose (% ID) and % ID/g of each organ or tissue were calculated.

% ID/g (4 h) Blood (Blood, 4 h): 0.93 ± 0.29 % ID/g | % ID/g (24 h) Blood (Blood): 0.04 ± 0.00 % ID/g | % ID/g (72 h) Blood (Blood): 0.01 ± 0.00 % ID/g | % ID/g (4 h) Femur (Femur, 4 h): 0.23 ± 0.06 % ID/g | % ID/g (24 h) Femur (Femur): 0.04 ± 0.02 % ID/g | % ID/g (72 h) Femur (Femur): 0.02 ± 0 % ID/g | % ID/g (4 h) Heart (Heart, 4 h): 0.41 ± 0.13 % ID/g | % ID/g (24 h) Heart (Heart): 0.04 ± 0.02 % ID/g | % ID/g (72 h) Heart (Heart): 0.01 ± 0.01 % ID/g | % ID/g (4 h) Intestine (Intestine, 4 h): 1.86 ± 0.58 % ID/g | % ID/g (24 h) Intestine (Intestine): 0.14 ± 0.01 % ID/g | % ID/g (72 h) Intestine (Intestine): 0.04 ± 0.01 % ID/g | % ID/g (4 h) Kidney (Kidney, 4 h): 3.02 ± 0.39 % ID/g | % ID/g (24 h) Kidney (Kidney): 0.31 ± 0.11 % ID/g | % ID/g (72 h) Kidney (Kidney): 0.04 ± 0.01 % ID/g | % ID/g (4 h) Liver (Liver, 4 h): 0.96 ± 0.4 % ID/g | % ID/g (24 h) Liver (Liver): 0.14 ± 0.01 % ID/g | % ID/g (72 h) Liver (Liver): 0.06 ± 0.02 % ID/g | % ID/g (4 h) Lung (Lung, 4 h): 0.74 ± 0.72 % ID/g | % ID/g (24 h) Lung (Lung): 0.4 ± 0.26 % ID/g | % ID/g (72 h) Lung (Lung): 0.05 ± 0.03 % ID/g | % ID/g (4 h) Muscle (Muscle, 4 h): 0.13 ± 0.12 % ID/g | % ID/g (24 h) Muscle (Muscle): 0.01 ± 0.01 % ID/g | % ID/g (72 h) Muscle (Muscle): 0.011 ± 0.01 % ID/g | % ID/g (4 h) Pancreas (Pancreas, 4 h): 0.07 ± 0.01 % ID/g | % ID/g (24 h) Pancreas (Pancreas): 0.04 ± 0.02 % ID/g | % ID/g (72 h) Pancreas (Pancreas): 0.01 ± 0 % ID/g | % ID/g (4 h) Spleen (Spleen, 4 h): 0.3 ± 0.14 % ID/g | % ID/g (24 h) Spleen (Spleen): 0.12 ± 0.05 % ID/g | % ID/g (72 h) Spleen (Spleen): 0.02 ± 0.01 % ID/g | % ID/g (4 h) Stomach (Stomach, 4 h): 1.88 ± 0.59 % ID/g | % ID/g (24 h) Stomach (Stomach): 0.1 ± 0.07 % ID/g | % ID/g (72 h) Stomach (Stomach): 0.04 ± 0.01 % ID/g | % ID/g (4 h) Tumor (Tumor, 4 h): 17.97 ± 11.04 % ID/g | % ID/g (24 h) Tumor (Tumor): 12.27 ± 7.59 % ID/g | % ID/g (72 h) Tumor (Tumor): 4.24 ± 2.71 % ID/g | ratio of tumor AUC verse normal organ AUC: significantly improved
Structure (SMILES): COc1cccc(OC)c1-c1cc(C(=O)NC2(C(=O)O)C3CC4CC(C3)CC2C4)nn1-c1ccc(NCCOCCOCCNC(=O)CN2CCN(CC(=O)[O-])CCN(CC(=O)[O-])CCN(CC(=O)[O-])CC2)cc1C(C)C.[177Lu+3] (stereo not shown) [^177Lu-I-10]

uptake ratio Tumor/Blood (1 h): 4.7 | uptake ratio Tumor/Kidney (1 h): 17.2 | uptake ratio Tumor/Liver (1 h): 17.9 | uptake ratio Tumor/Lung (1 h): 9.0 | uptake ratio Tumor/Blood (4 h): 60.5 | uptake ratio Tumor/Kidney (4 h): 40.0 | uptake ratio Tumor/Liver (4 h): 16.6 | uptake ratio Tumor/Lung (4 h): 43.3 | % ID/g (1 h) Blood (Blood, 1 h): 3.18 ± 0.24 % ID/g | % ID/g (4 h) Blood (Blood, 4 h): 0.22 ± 0.07 % ID/g | % ID/g (1 h) Femur (Femur, 1 h): 0.53 ± 0.04 % ID/g | % ID/g (4 h) Femur (Femur, 4 h): 0.13 ± 0.1 % ID/g | % ID/g (1 h) Heart (Heart, 1 h): 1.46 ± 0.24 % ID/g | % ID/g (4 h) Heart (Heart, 4 h): 0.16 ± 0.06 % ID/g | % ID/g (1 h) Intestine (Intestine, 1 h): 1.28 ± 0.11 % ID/g | % ID/g (4 h) Intestine (Intestine, 4 h): 0.42 ± 0.16 % ID/g | % ID/g (1 h) Kidney (Kidney, 1 h): 0.87 ± 0.05 % ID/g | % ID/g (4 h) Kidney (Kidney, 4 h): 0.33 ± 0.09 % ID/g | % ID/g (1 h) Liver (Liver, 1 h): 0.84 ± 0.43 % ID/g | % ID/g (4 h) Liver (Liver, 4 h): 0.79 ± 0.08 % ID/g | % ID/g (1 h) Lung (Lung, 1 h): 1.66 ± 0.93 % ID/g | % ID/g (4 h) Lung (Lung, 4 h): 0.3 ± 0.15 % ID/g | % ID/g (1 h) Muscle (Muscle, 1 h): 0.31 ± 0.05 % ID/g | % ID/g (4 h) Muscle (Muscle, 4 h): 0.06 ± 0.02 % ID/g | % ID/g (1 h) Pancreas (Pancreas, 1 h): 0.26 ± 0.05 % ID/g | % ID/g (4 h) Pancreas (Pancreas, 4 h): 0.06 ± 0.02 % ID/g | % ID/g (1 h) Spleen (Spleen, 1 h): 0.26 ± 0.05 % ID/g | % ID/g (4 h) Spleen (Spleen, 4 h): 0.08 ± 0.03 % ID/g | % ID/g (1 h) Stomach (Stomach, 1 h): 0.55 ± 0.13 % ID/g | % ID/g (4 h) Stomach (Stomach, 4 h): 0.4 ± 0.22 % ID/g | % ID/g (1 h) Tumor (Tumor, 1 h): 14.96 ± 6.57 % ID/g | % ID/g (4 h) Tumor (Tumor, 4 h): 13.06 ± 6.54 % ID/g
Structure (SMILES): COc1cccc(OC)c1-c1cc(C(=O)NC2(C(=O)O)C3CC4CC(C3)CC2C4)nn1-c1ccc(C(=O)N(CCCNC(=O)CN2CCN(CC(=O)[O-])CCN(CC(=O)[O-])CCN(CC(=O)[O-])CC2)CCCN(C)C)cc1C(C)C.[177Lu+3] (stereo not shown) [^177Lu-C-5, reference compound]

tumor AUC over 72 hours compared to ^177Lu—C2: significantly higher tumor AUC | % ID/g (4 h) Blood (Blood, 4 h): 9.23 ± 0.36 % ID/g | % ID/g (24 h) Blood (Blood): 0.28 ± 0.03 % ID/g | % ID/g (72 h) Blood (Blood): 0.07 ± 0.01 % ID/g | % ID/g (4 h) Femur (Femur, 4 h): 1.4 ± 0.79 % ID/g | % ID/g (24 h) Femur (Femur): 0.39 ± 0.1 % ID/g | % ID/g (72 h) Femur (Femur): 0.111 ± 0.09 % ID/g | % ID/g (4 h) Heart (Heart, 4 h): 3.78 ± 0.03 % ID/g | % ID/g (24 h) Heart (Heart): 0.4 ± 0.13 % ID/g | % ID/g (72 h) Heart (Heart): 0.18 ± 0.1 % ID/g | % ID/g (4 h) Intestine (Intestine, 4 h): 2.00 ± 0.18 % ID/g | % ID/g (24 h) Intestine (Intestine): 1.00 ± 0.18 % ID/g | % ID/g (72 h) Intestine (Intestine): 0.55 ± 0.11 % ID/g | % ID/g (4 h) Kidney (Kidney, 4 h): 2.03 ± 0.38 % ID/g | % ID/g (24 h) Kidney (Kidney): 2.39 ± 0.77 % ID/g | % ID/g (72 h) Kidney (Kidney): 1.69 ± 1.04 % ID/g | % ID/g (4 h) Liver (Liver, 4 h): 5.15 ± 1.65 % ID/g | % ID/g (24 h) Liver (Liver): 1.66 ± 0.55 % ID/g | % ID/g (72 h) Liver (Liver): 1.02 ± 0.44 % ID/g | % ID/g (4 h) Lung (Lung, 4 h): 1.77 ± 0.37 % ID/g | % ID/g (24 h) Lung (Lung): 0.39 ± 0.11 % ID/g | % ID/g (72 h) Lung (Lung): 0.17 ± 0.02 % ID/g | % ID/g (4 h) Muscle (Muscle, 4 h): 1.48 ± 1.16 % ID/g | % ID/g (24 h) Muscle (Muscle): 0.23 ± 0.14 % ID/g | % ID/g (72 h) Muscle (Muscle): 0.05 ± 0.03 % ID/g | % ID/g (4 h) Pancreas (Pancreas, 4 h): 0.54 ± 0.14 % ID/g | % ID/g (24 h) Pancreas (Pancreas): 0.32 ± 0.15 % ID/g | % ID/g (72 h) Pancreas (Pancreas): 0.08 ± 0.02 % ID/g | % ID/g (24 h) Spleen (Spleen): 1.07 ± 0.31 % ID/g | % ID/g (72 h) Spleen (Spleen): 0.19 ± 0.03 % ID/g | % ID/g (4 h) Stomach (Stomach, 4 h): 0.86 ± 0.1 % ID/g | % ID/g (24 h) Stomach (Stomach): 0.43 ± 0.27 % ID/g | % ID/g (72 h) Stomach (Stomach): 0.22 ± 0.1 % ID/g | % ID/g (4 h) Tumor (Tumor, 4 h): 23.11 ± 18.15 % ID/g | % ID/g (24 h) Tumor (Tumor): 25.61 ± 1.69 % ID/g | % ID/g (72 h) Tumor (Tumor): 15.44 ± 5.61 % ID/g | ratio of tumor AUC verse normal organ AUC: significantly improved
Structure (SMILES): COc1cccc(OC)c1-c1cc(C(=O)NC2(C(=O)O)C3CC4CC(C3)CC2C4)nn1-c1ccc(NCCCN(C)CCCNC(=O)CN2CCN(CC(=O)[O-])CCN(CC(=O)[O-])CCN(CC(=O)[O-])CC2)cc1C(C)C.[177Lu+3] (stereo not shown) [^177Lu-I-2]

% ID/g (4 h) Blood (Blood, 4 h): 6.25 ± 1.53 % ID/g | % ID/g (24 h) Blood (Blood): 0.23 ± 0.12 % ID/g | % ID/g (4 h) Femur (Femur, 4 h): 0.89 ± 0.74 % ID/g | % ID/g (24 h) Femur (Femur): 0.4 ± 0.16 % ID/g | % ID/g (4 h) Heart (Heart, 4 h): 2.39 ± 0.51 % ID/g | % ID/g (24 h) Heart (Heart): 0.5 ± 0.12 % ID/g | % ID/g (4 h) Intestine (Intestine, 4 h): 3.51 ± 1.14 % ID/g | % ID/g (24 h) Intestine (Intestine): 1.00 ± 0.34 % ID/g | % ID/g (4 h) Kidney (Kidney, 4 h): 3.09 ± 1.79 % ID/g | % ID/g (24 h) Kidney (Kidney): 1.47 ± 1.07 % ID/g | % ID/g (4 h) Liver (Liver, 4 h): 7.4 ± 2.9 % ID/g | % ID/g (24 h) Liver (Liver): 1.86 ± 0.97 % ID/g | % ID/g (4 h) Lung (Lung, 4 h): 2.92 ± 2.09 % ID/g | % ID/g (24 h) Lung (Lung): 0.55 ± 0.34 % ID/g | % ID/g (4 h) Muscle (Muscle, 4 h): 0.54 ± 0.28 % ID/g | % ID/g (24 h) Muscle (Muscle): 0.34 ± 0.14 % ID/g | % ID/g (4 h) Pancreas (Pancreas, 4 h): 0.53 ± 0.09 % ID/g | % ID/g (24 h) Pancreas (Pancreas): 0.6 ± 0.2 % ID/g | % ID/g (4 h) Spleen (Spleen, 4 h): 0.71 ± 0.16 % ID/g | % ID/g (24 h) Spleen (Spleen): 1.22 ± 0.22 % ID/g | % ID/g (4 h) Stomach (Stomach, 4 h): 1.74 ± 1.36 % ID/g | % ID/g (24 h) Stomach (Stomach): 0.69 ± 0.46 % ID/g | % ID/g (4 h) Tumor (Tumor, 4 h): 16.7 ± 10.49 % ID/g | % ID/g (24 h) Tumor (Tumor): 26.12 ± 10.63 % ID/g
Structure (SMILES): COc1cccc(OC)c1-c1cc(C(=O)NC2(C(=O)O)C3CC4CC(C3)CC2C4)nn1-c1ccc(SCCCN(C)CCCN(C)C(=O)CN2CCN(CC(=O)[O-])CCN(CC(=O)[O-])CCN(CC(=O)[O-])CC2)cc1C(C)C.[177Lu+3] (stereo not shown) [^177Lu-I-8]
